Assay results published in patent publication US8053603B2, “Tetralone-based monoamine reuptake inhibitors” (Sunovion Pharmaceuticals Inc., priority 2006, dated 2011).
Where two headings read alike, the source gives them in different places.

Tests used:
[1] = biological target: serotonin uptake sites (Homo sapiens, UniProt P31645); details: versus racemic 1-(3,4-dichlorophenyl)-3-azabicyclo[3.1.0]hexane; cited from earlier work
[2] = in vivo; cited from earlier work
[3] = biological target: T1, recombinant human norepinephrine transporter (Homo sapiens, UniProt P23975); test: Norepinephrine functional uptake assay for human reuptake transporter; assay type: cell-based; details: [3H]norepinephrine uptake, HEK293 or MDCK cells expressing human norepinephrine transporter
T1 construct: expressed in transfected cells; host or cells: HEK293 or MDCK
T1 sequence (P23975 whole entry): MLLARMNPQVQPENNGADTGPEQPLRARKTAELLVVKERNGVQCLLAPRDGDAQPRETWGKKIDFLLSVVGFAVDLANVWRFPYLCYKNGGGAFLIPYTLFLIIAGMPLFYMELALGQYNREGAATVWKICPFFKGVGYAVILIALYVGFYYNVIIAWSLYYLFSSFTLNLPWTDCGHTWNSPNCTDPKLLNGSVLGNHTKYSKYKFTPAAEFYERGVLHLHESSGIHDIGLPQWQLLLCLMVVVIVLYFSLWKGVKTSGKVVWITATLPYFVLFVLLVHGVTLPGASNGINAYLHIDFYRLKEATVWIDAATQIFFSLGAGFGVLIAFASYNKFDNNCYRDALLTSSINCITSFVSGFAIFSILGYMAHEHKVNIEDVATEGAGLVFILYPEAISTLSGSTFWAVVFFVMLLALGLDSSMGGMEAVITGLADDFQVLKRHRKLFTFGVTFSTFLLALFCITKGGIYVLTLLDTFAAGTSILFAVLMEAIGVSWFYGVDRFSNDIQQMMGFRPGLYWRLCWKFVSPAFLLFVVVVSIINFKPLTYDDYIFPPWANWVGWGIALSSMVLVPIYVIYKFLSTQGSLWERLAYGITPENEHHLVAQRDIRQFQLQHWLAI
Experimental: Norepinephrine Functional Uptake Assay for Human Reuptake Transporter
The cells were plated before the assay. Test compound and/or vehicle was preincubated with cells in modified HEPES buffer pH 7.1 or pH 7.4 for 20 minutes at 18 to 25° C. . […] After the cells were washed to remove [^3H]norepinephrine not internalized, the cells were lysed, and the amount of tritium in the cell lysate was measured using a liquid scintillation counter to determine [^3H]norepinephrine uptake. Non-specific binding of tritium was measured in a control reaction containing 10 μM imipramine (or 10 μM nisoxetine), and was subtracted from the counts for assays to correct for non-specific binding of tritium. Reduction of [^3H]norepinephrine uptake by 50 percent or more (≧50%) relative to an uninhibited control reaction indicates significant inhibitory activity.

[4] = biological target: T2, recombinant human dopamine transporter (Homo sapiens, UniProt Q01959); test: Dopamine functional uptake assay for human reuptake transporter; assay type: cell-based; details: [3H]dopamine uptake, CHO-K1 or HEK293 cells expressing human dopamine transporter; read-out: Human IC50 (nM) DAT
T2 construct: expressed in transfected cells; host or cells: CHO-K1 or HEK293
T2 sequence (Q01959 whole entry): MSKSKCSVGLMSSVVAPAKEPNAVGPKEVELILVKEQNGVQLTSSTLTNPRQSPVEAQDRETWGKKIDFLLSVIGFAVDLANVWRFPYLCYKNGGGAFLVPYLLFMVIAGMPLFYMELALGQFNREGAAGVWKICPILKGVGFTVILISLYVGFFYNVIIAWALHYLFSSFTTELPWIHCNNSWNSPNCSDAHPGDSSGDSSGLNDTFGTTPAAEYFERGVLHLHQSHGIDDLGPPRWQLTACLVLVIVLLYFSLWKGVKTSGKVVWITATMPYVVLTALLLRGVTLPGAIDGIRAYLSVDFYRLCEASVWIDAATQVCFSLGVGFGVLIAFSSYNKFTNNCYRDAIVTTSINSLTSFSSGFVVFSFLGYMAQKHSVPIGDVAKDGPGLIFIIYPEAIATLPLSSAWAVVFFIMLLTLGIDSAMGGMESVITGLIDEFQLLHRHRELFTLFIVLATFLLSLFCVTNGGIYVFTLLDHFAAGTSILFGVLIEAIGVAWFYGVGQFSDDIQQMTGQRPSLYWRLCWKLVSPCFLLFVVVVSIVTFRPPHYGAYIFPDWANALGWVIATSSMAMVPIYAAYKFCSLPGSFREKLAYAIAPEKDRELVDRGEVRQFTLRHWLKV
Experimental: Dopamine Functional Uptake Assay for Human Reuptake Transporter
Either CHO-K1 or HEK293 cells expressing human recombinant dopamine transporter were plated before the assay. Test compound and/or vehicle was preincubated with cells in modified HEPES buffer pH 7.1 or pH 7.4 for 20 minutes at 18 to 25° C. and 50 nM [^3H]dopamine was then added for an additional timed incubation period (10 to 30 minutes). After washing the cells to remove [^3H]dopamine not internalized, the cells were lysed, and the amount of tritium in the lysate was measured using a liquid scintillation counter to determine [^3H]dopamine uptake. Non-specific binding of tritium was measured in a control reaction containing 10 μM nomifensine, and was subtracted from the counts for assays to correct for non-specific binding of tritium. Reduction of [^3H]dopamine uptake by 50 percent or more (≧50%) relative to an uninhibited control reaction indicates significant inhibitory activity.

[5] = biological target: T3, recombinant human serotonin transporter (Homo sapiens, UniProt P31645); test: Serotonin functional uptake assay for human reuptake transporter; assay type: cell-based; details: [3H]serotonin uptake, HEK-293 cells expressing human serotonin transporter; read-out: Human IC50 (nM) SERT
T3 construct: expressed in transfected cells; host or cells: HEK-293
T3 sequence (P31645 whole entry): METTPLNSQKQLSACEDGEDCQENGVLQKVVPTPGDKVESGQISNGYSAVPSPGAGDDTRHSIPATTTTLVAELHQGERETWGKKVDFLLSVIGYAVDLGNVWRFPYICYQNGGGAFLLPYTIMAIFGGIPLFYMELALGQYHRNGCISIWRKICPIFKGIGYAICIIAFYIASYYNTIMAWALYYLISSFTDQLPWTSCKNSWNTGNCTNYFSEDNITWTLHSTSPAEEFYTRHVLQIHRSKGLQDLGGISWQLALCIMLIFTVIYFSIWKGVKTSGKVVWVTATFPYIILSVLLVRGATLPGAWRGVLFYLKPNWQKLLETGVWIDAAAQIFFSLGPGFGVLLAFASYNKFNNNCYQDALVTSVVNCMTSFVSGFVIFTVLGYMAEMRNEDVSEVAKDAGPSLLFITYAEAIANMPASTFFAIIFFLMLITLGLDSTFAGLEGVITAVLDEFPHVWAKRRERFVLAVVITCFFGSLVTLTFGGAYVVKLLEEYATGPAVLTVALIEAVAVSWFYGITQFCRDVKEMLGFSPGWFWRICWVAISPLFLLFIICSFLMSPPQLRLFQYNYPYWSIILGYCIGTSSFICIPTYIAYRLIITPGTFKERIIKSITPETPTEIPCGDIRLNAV
Experimental: Serotonin Functional Uptake Assay for Human Reuptake Transporter
HEK-293 cells expressing human serotonin transporter were plated before the assay. […] Cells with internalized [^3H]serotonin were washed and the amount of tritium taken into cells is counted using a liquid scintillation counter to determine [^3H]serotonin uptake.

Sequence of serotonin uptake sites (P31645 whole entry): as above

Compound | affinity for the serotonin uptake sites compared with the racemic compound [1] | immobility in the tail suspension test [2] | IC50 ([3]; Human IC50 (nM) NET) [nM] | IC50 [4] [nM] | IC50 [5] [nM] | IC50 ([3]; read-out: Human IC50 (nM) NET) [nM]
Clc1ccc([C@@]23CNC[C@@H]2C3)cc1Cl (single isomer, unassigned) [DOV 21,947, (+)-1-(3,4-dichlorophenyl)-3-azabicyclo[3.1.0]hexane] | significantly greater affinity | dose-dependent reduction in immobility | – | – | – | –
CN(C)C1CC(c2ccc(Cl)c(Cl)c2)c2ccccc2C1O (single isomer, unassigned) [Compound 23d, 4-(3,4-dichlorophenyl)-2-(dimethylamino)-1,2,3,4-tetrahydronaphthalen-1-ol] | – | – | 65 | 48 | 48 | –
CNC(C)C1=Cc2ccccc2[C@H](c2ccc(Cl)c(Cl)c2)C1 (single isomer, unassigned) [Compound 47] | – | – | – | 1140 | 44 | 1180
CC(C1=Cc2ccccc2[C@H](c2ccc(Cl)c(Cl)c2)C1)N(C)C (stereo partly drawn) [Compound 48, 1-((S)-4-(3,4-dichlorophenyl)-3,4-dihydronaphthalen-2-yl)-N,N-dimethylethanamine] | – | – | – | 2440 | 134 | 2720
CN[C@@H]1Cc2cccc(OC)c2[C@H](c2ccc(Cl)c(Cl)c2)C1 (single isomer, unassigned) [Compound 32b.2, 4-(3,4-dichlorophenyl)-5-methoxy-N-methyl-1,2,3,4-tetrahydronaphthalen-2-amine] | – | – | – | 496 | 307 | 2320
CN(C)C1CC(c2ccc(Cl)c(Cl)c2)c2ccccc2C1O (single isomer, unassigned) [Compound 23a, 4-(3,4-dichlorophenyl)-2-(dimethylamino)-1,2,3,4-tetrahydronaphthalen-1-ol] | – | – | – | 371 | 117 | 710
